Data: patent EP1984353B1, “AURORA KINASE MODULATORS AND METHOD OF USE” (Amgen, Inc, priority 2006, dated 2007)
Where two headings read alike, the source gives them in different places.

Legend:
AuroraA-TPX2 = molecular target: T1, AuroraA-TPX2 (Homo sapiens, UniProt O14965); experiment: AuroraA-TPX2 Homogeneous Time Resolved Fluorescent (HTRF) kinase assay; assay type: biochemical; details: average, read-out: AurA/TP X2_ IC50_IP (Avg)
T1 construct: 20 µL of AuroraA-TPX2 KD GST; GST
T1 sequence (O14965 133-383 limits assumed): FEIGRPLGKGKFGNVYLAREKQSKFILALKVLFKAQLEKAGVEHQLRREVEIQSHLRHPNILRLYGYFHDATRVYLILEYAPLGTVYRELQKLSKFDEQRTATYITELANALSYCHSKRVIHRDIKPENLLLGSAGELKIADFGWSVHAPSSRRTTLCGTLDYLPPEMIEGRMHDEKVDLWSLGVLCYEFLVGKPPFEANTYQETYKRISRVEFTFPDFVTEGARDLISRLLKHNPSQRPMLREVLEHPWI
T1 sequence (Q9ULW0 1-43 partner limits assumed): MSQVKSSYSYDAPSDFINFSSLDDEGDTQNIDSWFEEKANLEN
Method in brief: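 Aurora-A/TPX2 phosphorylates biotinylated PLK peptide (about 1 µM) with ATP for about 120 min in 60 mM HEPES pH 7.5, 10 mM MgCl2, 2 mM DTT. EDTA quench, overnight equilibration with Eu-anti-phosphoPLK antibody and SA-APC; HTRF read at 615/655 nm after 320 nm excitation.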

AuroraB = molecular target: T2, AuroraB (Homo sapiens, UniProt Q96GD4); experiment: AuroraB Homogeneous Time Resolved Fluorescent (HTRF) kinase assay; assay type: biochemical; details: average, read-out: AurB_ _IC50_IP (Avg)
T2 construct: 20 µL of AuroraB FL His; His
T2 sequence (Q96GD4 whole entry): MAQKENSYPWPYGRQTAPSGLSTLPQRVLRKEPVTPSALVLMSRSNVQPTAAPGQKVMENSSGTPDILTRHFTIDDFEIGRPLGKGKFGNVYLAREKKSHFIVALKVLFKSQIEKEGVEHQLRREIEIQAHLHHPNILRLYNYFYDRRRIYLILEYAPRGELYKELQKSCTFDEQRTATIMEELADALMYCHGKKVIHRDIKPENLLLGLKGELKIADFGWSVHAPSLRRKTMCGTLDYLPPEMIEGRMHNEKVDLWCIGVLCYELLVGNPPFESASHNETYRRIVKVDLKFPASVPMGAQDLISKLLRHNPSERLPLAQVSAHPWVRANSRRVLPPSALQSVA
Method in brief: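 Full-length His-tagged AuroraB (400 pM) phosphorylates 0.1 µM biotinylated Histone H3 with 23 µM ATP (Km(app)) in HEPES pH 7.5 with Mg/Mn, about 90 min. EDTA-quenched; Eu-anti-phosphoHistoneH3 and SA-APC HTRF, 655/615 nm ratio as phosphorylation.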

[1] = given as numbers, unit inferred

IC50 (AuroraA-TPX2; given as class symbols) [µM] | IC50 (AuroraB; given as class symbols) [µM] | IC50 (AuroraA-TPX2; [1]) [µM] | IC50 (AuroraB; [1]) [µM] | SMILES
≤ 0.1 | ≤ 0.1 |  |  | CC1CN(CCCNc2nccc(-c3cccnc3Oc3ccc(Nc4nnc(-c5ccccc5)c5ccccc45)cc3)n2)CC(C)O1 (stereo not drawn) [compound 326, N-(4-((3-(2-((3-(2,6-dimethyl-4-morpholinyl)propyl)amino)-4-pyrimidinyl)-2-pyridinyl)oxy)phenyl)-4-phenyl-1-phthalazinamine]
0.1 to 0.5 | 0.5 to 2.5 |  |  | O=C(O)CCNc1nccc(-c2cccnc2Oc2ccc(Nc3nnc(-c4ccccc4)c4ccccc34)cc2)n1 [compound 327, N-(4-(2-((4-((4-phenyl-1-phthalazinyl)amino)phenyl)oxy)-3-pyridinyl)-2-pyrimidinyl)-beta-alanine]
 |  | 0.065 | 0.0043 | C[C@H]1CN(CCCNc2nccc(-c3cccnc3Oc3ccc(Nc4nnc(-c5ccccc5)c5ccccc45)cc3)n2)[C@@H](C)CO1 [compound 328, N-(4-((3-(2-((3-((2S,5S)-2,5-dimethyl-4-morpholinyl)propyl)amino)-4-pyrimidinyl)-2-pyridinyl)oxy)phenyl)-4-phenyl-1-phthalazinamine]
0.1 to 0.5 | ≤ 0.1 |  |  | Nc1nccc(-c2cccnc2Oc2ccc(Nc3nnc(-c4cccc(COP(=O)(O)O)c4)c4ccccc34)cc2)n1 [compound 351, (3-(4-((4-((3-(2-amino-4-pyrimidinyl)-2-pyrldinyl)oxy)phenyl)amino)-1-phthalazinyl)pbenyl)methyl dihydrogen phosphate]

The remaining lines, values behind:

SMILES | IC50 (AuroraA-TPX2; given as class symbols) [µM] | IC50 (AuroraB; given as class symbols) [µM] | IC50 (AuroraA-TPX2; [1]) [µM] | IC50 (AuroraB; [1]) [µM]
COc1cccc(-c2nnc(Nc3ccc(Oc4ncccc4-c4c[nH]nc4N)cc3)c3ccccc23)c1 [compound 317, N-(4-((3-(3-amino-1H-pyrazol-4-yl)-2-pyridinyl)oxy)phenyl)-4-(3-(methyloxy)phenyl)-1-phthalazinamine] | ≤ 0.1 | ≤ 0.1 |  | 
CS(=O)(=O)c1cccc(-c2nnc(Nc3ccc(Oc4ncccc4-c4ccnc(N)n4)nc3)c3ccccc23)c1 [compound 318, N-(6-((3-(2-amino-4-pyrimidinyl)-2-pyridinyl)oxy)-3-pyridinyl)-4-(3-(methylsulfonyl)phenyl)-1-phthalazinamine] |  |  | 0.0238 | 0.0056
COc1ccc(-c2nnc(Nc3ccc(Oc4ncccc4-c4ccnc(N)n4)nc3)c3ccccc23)cc1 [compound 319, N-(6-((3-(2-amino-4-pyrimidinyl)-2-pyridinyl)oxy)-3-pyridinyl)-4-(4-(methyloxy)phenyl)-1-phthalazinamine] | ≤ 0.1 | ≤ 0.1 |  | 
COc1ccc(-c2nnc(Nc3ccc(Oc4ncccc4-c4ccnc(N)n4)cc3)c3ccccc23)cc1 [compound 320, N-(4-((3-(2-amino-4-pyrimidinyl)-2-pyridinyl)oxy)phenyl)-4-(4-(methyloxy)phenyl)-1-phthalazinamine] | ≤ 0.1 | ≤ 0.1 |  | 
CCOc1ccc(-c2nnc(Nc3ccc(Oc4ncccc4-c4ccnc(N)n4)cc3)c3ccccc23)cc1 [compound 321, N-(4-((3-(2-amino-4-pyrimidinyl)-2-pyridinyl)oxy)phenyl)-4-(4-(ethyloxy)phenyl)-1-phthalazinamine] | ≤ 0.1 | ≤ 0.1 |  | 
CCOc1ccccc1-c1nnc(Nc2ccc(Oc3ncccc3-c3ccnc(N)n3)cc2)c2ccccc12 [compound 322, N-(4-((3-(2-amino-4-pyrimidinyl)-2-pyridinyl)oxy)phenyl)-4-(2-(ethyloxy)phenyl)-1-phthalazinamine] | ≤ 0.1 | ≤ 0.1 |  | 
CN1CCN(CCCNc2nccc(-c3cccnc3Oc3ccc(Nc4nnc(-c5ccccn5)c5ccccc45)cc3)n2)CC1 [compound 323, N-(4-((3-(2-((3-(4-methyl-1-piperazinyl)propyl)amino)-4-pyrimidinyl)-2-pyridinyl)oxy)phenyl)-4-(2-pyridinyl)-1-phthalazinamine] | 0.1 to 0.5 | ≤ 0.1 |  | 
CN(C)C1CCN(CCCNc2nccc(-c3cccnc3Oc3ccc(Nc4nnc(-c5ccccc5)c5ccccc45)cc3)n2)C1 (stereo not drawn) [compound 324, N-(4-((3-(2-((3-(3-(dimethylamino)-1-pyrrolidinyl)propyl)amino)-4-pyrimidinyl)-2-pyridinyl)oxy)phenyl)-4-phenyl-1-phthalazinamine] | ≤ 0.1 | ≤ 0.1 |  | 
